Structures are written as SMILES. “And” between values parts separate entries of the source, which are not always exact repeats. Equal entries are not always repeated. Where two headings read alike, the source gives them in different places.

Data set [1] has as its system A549, SKOV-3, A2780, SKBR-3 cells. Briefly: MTT assay, ranges stated over several cell lines. Format: cell-based, human. On the procedure: (§1) The selected cell lines include A549, a lung cancer cell line that is characterized by its high expression of EGFR; SKOV-3, an ovarian cancer cell line, selected for its overexpression of both EGFR and HER2; and the breast cancer cell line (SKBR-3), characterized by HER2 overexpression.
(§2) Cells were passaged regularly at around 80% confluency using […] and maintained in 75 cm^2 flasks at 37 °C in a humidified atmosphere containing 5% CO2.
(§3) Approximately 10 × 10^3 cells were seeded per well of the 96-well plates using drug-free media and incubated for 24 h. […] After 48 h of drug exposure, the supernatant was aspirated, and the cells were washed with 100 μL of PBS. The MTT assay was performed by creating a stock solution of MTT at a concentration of 5 mg/mL in PBS. From this stock, a solution of MTT in the cell culture media was prepared to achieve a final concentration of 0.5 mg/mL. […] The MTT solution was thereafter removed, and the generated formazan crystals were dissolved by adding 100 μL of propanol/DMSO (50:50) per well. Absorbance was measured at 570 nm, and IC50 values for each compound were calculated by comparison against negative untreated controls.
A general note: Tetrazolium dyes change colour on reduction, which living cells bring about.

The target in data set [2] is T1, EGFR (Homo sapiens, UniProt P00533).
T1 construct: purchased BPS Bioscience 40321
T1 sequence (P00533 25-1210): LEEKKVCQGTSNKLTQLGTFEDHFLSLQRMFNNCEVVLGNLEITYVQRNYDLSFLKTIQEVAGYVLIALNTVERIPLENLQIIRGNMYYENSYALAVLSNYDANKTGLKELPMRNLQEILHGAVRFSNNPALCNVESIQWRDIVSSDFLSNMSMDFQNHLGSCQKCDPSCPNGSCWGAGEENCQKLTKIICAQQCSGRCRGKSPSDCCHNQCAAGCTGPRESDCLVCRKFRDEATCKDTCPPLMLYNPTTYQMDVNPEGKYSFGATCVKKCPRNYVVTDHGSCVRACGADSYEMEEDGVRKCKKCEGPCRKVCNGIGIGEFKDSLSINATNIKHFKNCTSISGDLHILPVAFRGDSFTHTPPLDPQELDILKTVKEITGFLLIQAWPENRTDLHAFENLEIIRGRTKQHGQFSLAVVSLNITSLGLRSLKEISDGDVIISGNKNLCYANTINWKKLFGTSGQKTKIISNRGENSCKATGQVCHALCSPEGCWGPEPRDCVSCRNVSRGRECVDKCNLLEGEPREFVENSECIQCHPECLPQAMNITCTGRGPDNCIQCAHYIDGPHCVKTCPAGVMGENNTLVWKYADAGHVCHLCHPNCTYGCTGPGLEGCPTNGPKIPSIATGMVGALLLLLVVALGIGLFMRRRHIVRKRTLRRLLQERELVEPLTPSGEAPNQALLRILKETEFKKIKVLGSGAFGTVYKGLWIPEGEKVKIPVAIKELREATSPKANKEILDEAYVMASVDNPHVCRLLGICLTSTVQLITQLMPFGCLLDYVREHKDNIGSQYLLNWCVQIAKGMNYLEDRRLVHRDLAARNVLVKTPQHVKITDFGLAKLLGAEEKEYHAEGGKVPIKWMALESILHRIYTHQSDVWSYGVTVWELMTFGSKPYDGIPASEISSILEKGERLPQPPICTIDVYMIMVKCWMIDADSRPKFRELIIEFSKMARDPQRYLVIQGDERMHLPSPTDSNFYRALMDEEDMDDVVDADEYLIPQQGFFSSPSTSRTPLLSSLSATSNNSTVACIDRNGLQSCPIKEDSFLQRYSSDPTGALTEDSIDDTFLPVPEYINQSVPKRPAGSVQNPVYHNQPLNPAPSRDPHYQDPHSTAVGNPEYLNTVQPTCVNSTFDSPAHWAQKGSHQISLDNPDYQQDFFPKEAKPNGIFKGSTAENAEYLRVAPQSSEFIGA
Nature of the data set: In vitro enzyme inhibition assay, EGFR Kinase Assay Kit (BPS Bioscience). Format: biochemical. Conditions: three independent experiments; read-out: Protein Kinase Inhibition IC50, EGFR.

The target in data set [3] is T2, HER2 (Homo sapiens, UniProt P04626).
T2 construct: purchased BPS Bioscience 40721
T2 sequence (P04626 23-1255): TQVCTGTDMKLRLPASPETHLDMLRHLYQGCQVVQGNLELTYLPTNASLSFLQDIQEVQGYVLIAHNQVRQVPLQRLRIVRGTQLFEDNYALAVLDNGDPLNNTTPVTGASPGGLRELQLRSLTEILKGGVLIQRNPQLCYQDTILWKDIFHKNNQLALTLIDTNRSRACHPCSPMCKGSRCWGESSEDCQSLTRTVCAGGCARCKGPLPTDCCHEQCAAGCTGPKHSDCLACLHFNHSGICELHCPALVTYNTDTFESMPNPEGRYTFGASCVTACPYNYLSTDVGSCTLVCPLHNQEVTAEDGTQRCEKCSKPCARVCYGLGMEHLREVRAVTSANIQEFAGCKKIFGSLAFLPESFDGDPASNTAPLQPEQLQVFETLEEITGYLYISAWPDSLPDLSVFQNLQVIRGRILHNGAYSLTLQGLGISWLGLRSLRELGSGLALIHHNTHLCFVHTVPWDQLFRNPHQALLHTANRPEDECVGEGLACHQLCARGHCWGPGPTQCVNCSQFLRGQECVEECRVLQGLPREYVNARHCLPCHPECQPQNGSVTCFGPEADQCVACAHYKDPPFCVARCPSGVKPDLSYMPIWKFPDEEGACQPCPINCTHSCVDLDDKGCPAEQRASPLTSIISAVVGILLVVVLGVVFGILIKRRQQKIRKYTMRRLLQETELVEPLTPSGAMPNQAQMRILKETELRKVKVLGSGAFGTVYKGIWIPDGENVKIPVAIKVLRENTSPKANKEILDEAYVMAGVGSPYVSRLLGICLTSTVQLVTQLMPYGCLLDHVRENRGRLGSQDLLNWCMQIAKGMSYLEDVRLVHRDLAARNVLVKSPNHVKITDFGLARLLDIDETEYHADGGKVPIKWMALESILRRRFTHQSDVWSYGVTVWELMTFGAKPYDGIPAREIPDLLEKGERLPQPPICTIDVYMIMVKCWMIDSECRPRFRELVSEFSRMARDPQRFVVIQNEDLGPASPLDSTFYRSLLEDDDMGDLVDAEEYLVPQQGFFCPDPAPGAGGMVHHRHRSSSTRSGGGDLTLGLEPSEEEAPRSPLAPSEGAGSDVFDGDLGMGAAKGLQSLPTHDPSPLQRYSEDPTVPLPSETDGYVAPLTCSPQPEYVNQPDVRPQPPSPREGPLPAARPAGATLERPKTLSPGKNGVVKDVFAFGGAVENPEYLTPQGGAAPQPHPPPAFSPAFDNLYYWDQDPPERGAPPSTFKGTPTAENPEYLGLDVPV
Briefly: In vitro enzyme inhibition assay, HER2 Kinase Assay Kit (BPS Bioscience). Format: biochemical. Conditions: three independent experiments; read-out: Protein Kinase Inhibition IC50, HER2.

Data set [4] deals with SKBR-3 cells. Briefly: In vitro cytotoxicity assay (MTT), SKBR-3. Conditions: for IC50: MTT, 48 h, mean ± SD, three experiments. Format: cell-based, human. On the procedure:
as §1, §2, §3

The nature of data set [5]: In vitro cytotoxicity assay (MTT), normal cell line MRC-5. The format is cell-based. Conditions: MRC-5 normal embryonic lung cells, normal human embryonic lung cell line, mean ± SD. The protocol: as §2, §3
In data set [6] the test system is A549 cells. Nature of the data set: In vitro cytotoxicity assay (MTT), A549. Conditions: for IC50: mean ± SD, three experiments. The protocol:
as §1, §2, §3

Data set [7] has as its system A2780 cells. Nature of the data set: In vitro cytotoxicity assay (MTT), A2780. Format: cell-based. Conditions: Homo sapiens, 48 h, read-out: percentage of cell viability, A2780.
For data set [8], the system named is SKOV-3 cells. Briefly: In vitro cytotoxicity assay (MTT), SKOV-3. The following applies: for IC50: mean ± SD, three experiments. Format: cell-based, human. On the procedure:
as §1, §2, §3

The term viability denotes the share of living cells, or the viability signal relative to a control. `O=C(N/N=C/c1cccc2ccccc12)c1ccc(Nc2ncnc3c2ncn3C2CCCC2)cc1` [23b, (E)-4-((9-cyclopentyl-9H-purin-6-yl)amino)-N′-(naphthalen-1-ylmethylene)benzohydrazide]: the viability at 10 µM in data set [1] (Homo sapiens, 10 µM, 48 h, A549 and SKOV-3, read-out: cell viability range for A549 and SKOV-3) is 81 to 100%.
By IC50 is commonly meant the midpoint of a concentration-inhibition curve. In the case of `O=C(N/N=C/c1cccc(C(F)(F)F)c1)c1ccc(Nc2ncnc3c2ncn3C2CCCC2)cc1` [16b, (E)-4-((9-cyclopentyl-9H-purin-6-yl)amino)-N′-(3-(trifluoromethyl)benzylidene) benzohydrazide], in data set [1] (IC50 MRC-5/IC50 cancer cell line, A549, SKOV-3, SKBR-3), the “Selectivity index (SI) range across cancer cell lines” value was 8.51–18.55. Moreover, the IC50 is 0.06 µM and 0.062 µM in data set [2]; 0.045 ± 0.01 µM in data set [3]; 4.3 ± 0.94 µM in data set [4] (Homo sapiens, SK-BR-3, 48 h); 4.31 ± 0.948 µM in data set [4]; 2.6 ± 0.35 µM in data set [6] (Homo sapiens, A549, 48 h, read-out: Cytotoxicity (IC50), A549, MTT, 48 h); 2.6 ± 0.351 µM in data set [6] (read-out: Cytotoxicity (IC50), A549, MTT, 48 h). The IC50 is 1.97 ± 0.07 µM in data set [8] (Homo sapiens, SK-OV-3, 48 h, MTT, 48 h) and 1.98 ± 0.07 µM in data set [8] (MTT, 48 h). Further, the “Selectivity index (SI), SKBR-3” value in data set [4] (IC50 against MRC-5/IC50 against SKBR-3) was 8.51. This compound gave an IC50 at 48 h in data set [5] of 36.65 ± 0.2 µM. Also, the viability at 10 µM amounted to 27% in data set [6] (Homo sapiens, A549, 48 h, read-out: percentage of cell viability, A549); 16% in data set [7]; 26% in data set [8] (Homo sapiens, SK-OV-3, 10 µM, 48 h, MTT, read-out: percentage of cell viability, SKOV-3). Also, the “Selectivity index (SI), A549” value in data set [6] (IC50 against MRC-5/IC50 against A549) worked out at 14.07. Further, the “Selectivity index (SI), SKOV-3” value in data set [8] (IC50 against MRC-5/IC50 against SKOV-3) is on record as 18.55.

Values taken from article PMC12299904, “Purine–Hydrazone Scaffolds as Potential Dual EGFR/HER2 Inhibitors” (Pharmaceuticals, 2025).
